Measured values from the NIST ThermoML archive (doi:10.1021/je050162g).
Numbers after ± are expanded uncertainties.

How the values were obtained:
[1] = Liquid; for viscosity / speed of sound: 101 kPa; for viscosity: Capillary tube (Ostwald / Ubbelohde) method; for speed of sound: Linear variable-path acoustic interferometer; for mass density: 101.33 kPa, Pycnometric method
[2] = xn = mol fraction of the nth substance listed; settings: 101 kPa, Liquid, x1 = 1; for viscosity: Capillary tube (Ostwald / Ubbelohde) method; for excess molar volume: Direct dilatometry; for speed of sound: Linear variable-path acoustic interferometer

SMILES	viscosity ([1]; 303.15 K)	speed of sound ([1]; 303.15 K)	mass density ([1]; 303.15 K)	viscosity ([1]; 308.15 K)	speed of sound ([1]; 308.15 K)	mass density ([1]; 308.15 K)	viscosity ([1]; 313.15 K)	speed of sound ([1]; 313.15 K)	mass density ([1]; 313.15 K)	vapor or sublimation pressure ([1]; 410 K)	viscosity ([2]; 303.15 K)	excess molar volume ([2]; 303.15 K)	speed of sound ([2]; 303.15 K)	viscosity ([2]; 308.15 K)	excess molar volume ([2]; 308.15 K)	speed of sound ([2]; 308.15 K)	viscosity ([2]; 313.15 K)	excess molar volume ([2]; 313.15 K)	speed of sound ([2]; 313.15 K)	vapor or sublimation pressure ([1]; 344.68 K)
Cc1ccc(C)cc1 [1,4-dimethylbenzene]	0.566 ± 0.016 mPa·s	1283.7 ± 5.2 m/s	852.3 ± 2.3 kg/m3	0.537 ± 0.015 mPa·s	1271 ± 5.2 m/s	847.9 ± 2.3 kg/m3	0.513 ± 0.015 mPa·s	1260 ± 5.2 m/s	843.6 ± 2.3 kg/m3	97.3 ± 3 kPa	–	–	–	–	–	–	–	–	–	–
Cc1ccc(C)cc1 [1,4-dimethylbenzene] + C=COC(C)=O	–	–	–	–	–	–	–	–	–	–	0.566 ± 0.016 mPa·s	0 ± 6e-09 m3/mol	1283.7 ± 5.2 m/s	0.537 ± 0.015 mPa·s	0 ± 6e-09 m3/mol	1271 ± 5.2 m/s	0.513 ± 0.015 mPa·s	0 ± 6e-09 m3/mol	1260 ± 5.2 m/s	–
C=COC(C)=O [vinyl acetate]	0.384 ± 0.012 mPa·s	1095.9 ± 5.2 m/s	918 ± 6.8 kg/m3	0.361 ± 0.011 mPa·s	1072.5 ± 5.1 m/s	904.2 ± 6.7 kg/m3	0.332 ± 0.011 mPa·s	1055.7 ± 5.1 m/s	891.8 ± 6.7 kg/m3	–	–	–	–	–	–	–	–	–	–	97.3 ± 3 kPa
